Columns and labels:
IgG₁ antibodies = experiment: Effect on IgG₁ antibody production in ovalbumin-sensitized mice (ELISA); type: in vivo, BALB/c line male mice; conditions: for IgG₁ antibody yield (% control): 7 times, blood 14 days after sensitization
Protocol: (§1) That is, 4 mg of aluminum hydroxide to which 10 µg of ovalbumin has been adsorbed was intraperitoneally administered to 5 individuals per group of BALB/c line male mice (body weight, 21 - 25 g) to effect sensitization. Immediately after the sensitization, a 5% acacia aqueous solution containing a varied concentration of tofisopam or a 5% acacia aqueous solution containing no tofisopam (control) was administered orally once a day, 7 times in total. After 14 days of the sensitization, blood samples were collected to measure produced amounts of various types of immunoglobulin by means of enzyme-linked immunosorbent assay (ELISA). Production yields of IgG₁ and IgM antibodies were measured in the following manner. That is, a blood plasma sample was added to immobilized anti-mouse IgG₁ or IgM antibodies to allow IgG₁ antibodies or IgM antibodies to be linked, followed by the reaction with horseradish peroxidase-labeled anti-mouse IgG₁ antibodies or horseradish peroxidase-labeled anti-mouse IgM antibodies, and then the amount of produced IgG₁ or IgM antibodies was measured based on the horseradish peroxidase activity as a marker.

IgM antibodies = experiment: Effect on IgM antibody production in ovalbumin-sensitized mice (ELISA); type: in vivo, BALB/c line male mice; conditions: for IgM antibody yield (% control): 7 times, blood 14 days after sensitization
Protocol: as §1

[1] = in vivo; cited from earlier work
chronic urticaria [2] = conditions: of 14 cases; with antihistaminic drug, Chinese orthodox medicine and the like; cited from earlier work
bronchial asthma = conditions: 16 cases of bronchial asthma patients; cited from earlier work
[3] = tested on: psychogenic bronchial asthma; conditions: of 26 cases; with simultaneous β₂ stimulant and theophylline preparation; cited from earlier work
chronic urticaria [4] = conditions: of 2 cases; cited from earlier work
IgE antibodies = experiment: Effect on IgE antibody production in ovalbumin-sensitized mice (ELISA); type: in vivo, BALB/c line male mice; conditions: for IgE antibody yield (% control): 7 times, blood 14 days after sensitization
Protocol: That is, 4 mg of aluminum hydroxide to which 10 μg of ovalbumin has been adsorbed was intraperitoneally administered to 5 individuals per group of BALB/c line male mice (body weight, 21 - 25 g) to effect sensitization. Immediately after the sensitization, a 5% acacia aqueous solution containing a varied concentration of tofisopam or a 5% acacia aqueous solution containing no tofisopam (control) was administered orally once a day, 7 times in total. After 14 days of the sensitization, blood samples were collected to measure produced amounts of various types of immunoglobulin by means of enzyme-linked immunosorbent assay (ELISA). Production yield of IgE antibodies was measured in the following manner. That is, a blood plasma sample was added to immobilized anti-mouse IgE antibodies to allow IgE to be linked, followed by the reaction with biotin-labeled anti-mouse IgE antibodies and avidin-labeled horseradish peroxidase, and then the amount of produced IgE antibodies was measured based on the horseradish peroxidase activity as a marker (Men'eki-to-[…], vol.15, pp.211 - 216, 1988).

rat experimental asthma = experiment: Rat experimental asthma, airway resistance by over flow technique; type: in vivo, Wister line male rats
Protocol: That is, 2 x 10¹⁰ cells of inactivated Bordetella pertussis and 1 mg of ovalbumin were respectively administered intraperitoneally and intramuscularly to 5 individuals per group of Wister line male rats (body weight, 194 - 210 g) to effect sensitization. Immediately after the sensitization, a 5% acacia aqueous solution containing a varied concentration of tofisopam or a 5% acacia aqueous solution containing no tofisopam (control) was administered orally once a day, 14 times in total.
After 14 days of the sensitization, ovalbumin was administered to the sensitized rats intravenously at a dose of 0.5 mg/kg, and the increasing degree of airway resistance was measured by means of the over flow technique (Arch. Exp. Pathol. Pharmak., vol.195, pp.71 - 74, 1974). The thus obtained inhibition rate of airway contraction, when the result of the control test is defined as 100, is shown in Table 4.

[5] = 100 mg/kg/day orally once a day
[6] = 300 mg/kg/day orally once a day
[7] = 100 or 300 mg/kg/day orally for 7 days

In the case of CCC1C(C)=NN=C(c2ccc(OC)c(OC)c2)c2cc(OC)c(OC)cc21 (stereo not drawn) [Tofisopam, 1-(3,4-dimethoxyphenyl)-5-ethyl-7,8-dimethoxy-4-methyl-5H-2,3-benzodiazepine], the “IgG₁ antibody yield (% control)” value (IgG₁ antibodies; [5]) is reported as 113 % control, the “IgG₁ antibody yield (% control)” value (IgG₁ antibodies; [6]) is reported as 111 % control and the “influence upon the production of IgG₁ antibodies” value (IgG₁ antibodies; [7]) is reported as “hardly exerts influence”. For the same compound, the “IgM antibody yield (% control)” value (IgM antibodies; [5]) was 97 % control, the “IgM antibody yield (% control)” value (IgM antibodies; [6]) was 87 % control and the “influence upon the production of IgM antibodies” value (IgM antibodies; [7]) was “hardly exerts influence”. For the same compound, the “acute, subacute and chronic toxicities” value [1] was “confirmed safety of the compound”, the cases improved (chronic urticaria [2]) was 8 and the “efficacy in objective findings” value (bronchial asthma) was 25%. For the same compound, the “efficacy in subjective symptoms” value (bronchial asthma) was 50%, the cases improved [3] was “one” and the cases improved significantly (chronic urticaria [4]) was 1. For the same compound, the “IgE antibody yield (% control)” value (IgE antibodies; [5]) was 66 % control, the “IgE antibody yield (% control)” value (IgE antibodies; [6]) was 56 % control and the inhibition at 100 mg/kg (IgE antibodies; Mus musculus, po, 168 h, 100 mg/kg/day orally for 7 days) was ~34%. For the same compound, the inhibition at 300 mg/kg (IgE antibodies; Mus musculus, po, 168 h, 300 mg/kg/day orally for 7 days) was ~44%, the airway reaction (rat experimental asthma; 100 mg/kg/day orally for 14 days) was “can inhibit the airway reaction” and the “Inhibition rate (%) of airway contraction” value (rat experimental asthma; 100 mg/kg/day orally once a day, 14 times, ovalbumin 0.5 mg/kg intravenously 14 days after sensitization) was 27%.

Source: patent EP0548370A1, “DRUG FOR PREVENTING AND/OR TREATING ALLERGIC DISEASE” (MOCHIDA PHARMACEUTICAL CO., LTD., priority 1991, dated 1993)
